The values below come from PMC3217308 (Journal of Agricultural and Food Chemistry, 2011).

In this test the target is T1, human sweet taste receptor, hT1R2/hT1R3 (Homo sapiens, UniProt Q7RTX0+Q8TE23).
T1 sequence (Q8TE23 20-839): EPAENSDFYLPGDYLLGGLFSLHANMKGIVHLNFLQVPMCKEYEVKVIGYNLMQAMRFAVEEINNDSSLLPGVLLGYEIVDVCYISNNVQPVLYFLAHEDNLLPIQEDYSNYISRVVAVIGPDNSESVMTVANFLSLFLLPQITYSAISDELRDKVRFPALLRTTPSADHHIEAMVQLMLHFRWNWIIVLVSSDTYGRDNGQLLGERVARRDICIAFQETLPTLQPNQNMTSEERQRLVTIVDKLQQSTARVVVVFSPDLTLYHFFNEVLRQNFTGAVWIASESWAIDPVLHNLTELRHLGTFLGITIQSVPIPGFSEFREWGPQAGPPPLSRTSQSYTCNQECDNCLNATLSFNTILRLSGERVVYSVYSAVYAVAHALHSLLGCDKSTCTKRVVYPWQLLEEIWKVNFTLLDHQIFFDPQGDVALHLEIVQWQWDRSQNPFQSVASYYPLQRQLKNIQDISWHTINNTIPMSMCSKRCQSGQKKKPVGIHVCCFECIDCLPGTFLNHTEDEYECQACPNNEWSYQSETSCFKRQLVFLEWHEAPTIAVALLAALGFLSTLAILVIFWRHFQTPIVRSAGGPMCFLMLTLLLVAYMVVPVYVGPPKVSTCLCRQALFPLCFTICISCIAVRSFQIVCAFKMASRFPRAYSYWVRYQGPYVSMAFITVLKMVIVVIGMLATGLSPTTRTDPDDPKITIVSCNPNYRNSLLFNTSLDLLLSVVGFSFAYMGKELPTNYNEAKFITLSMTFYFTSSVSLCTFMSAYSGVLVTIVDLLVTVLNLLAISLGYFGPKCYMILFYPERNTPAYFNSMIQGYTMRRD
T1 sequence (Q7RTX0 21-852): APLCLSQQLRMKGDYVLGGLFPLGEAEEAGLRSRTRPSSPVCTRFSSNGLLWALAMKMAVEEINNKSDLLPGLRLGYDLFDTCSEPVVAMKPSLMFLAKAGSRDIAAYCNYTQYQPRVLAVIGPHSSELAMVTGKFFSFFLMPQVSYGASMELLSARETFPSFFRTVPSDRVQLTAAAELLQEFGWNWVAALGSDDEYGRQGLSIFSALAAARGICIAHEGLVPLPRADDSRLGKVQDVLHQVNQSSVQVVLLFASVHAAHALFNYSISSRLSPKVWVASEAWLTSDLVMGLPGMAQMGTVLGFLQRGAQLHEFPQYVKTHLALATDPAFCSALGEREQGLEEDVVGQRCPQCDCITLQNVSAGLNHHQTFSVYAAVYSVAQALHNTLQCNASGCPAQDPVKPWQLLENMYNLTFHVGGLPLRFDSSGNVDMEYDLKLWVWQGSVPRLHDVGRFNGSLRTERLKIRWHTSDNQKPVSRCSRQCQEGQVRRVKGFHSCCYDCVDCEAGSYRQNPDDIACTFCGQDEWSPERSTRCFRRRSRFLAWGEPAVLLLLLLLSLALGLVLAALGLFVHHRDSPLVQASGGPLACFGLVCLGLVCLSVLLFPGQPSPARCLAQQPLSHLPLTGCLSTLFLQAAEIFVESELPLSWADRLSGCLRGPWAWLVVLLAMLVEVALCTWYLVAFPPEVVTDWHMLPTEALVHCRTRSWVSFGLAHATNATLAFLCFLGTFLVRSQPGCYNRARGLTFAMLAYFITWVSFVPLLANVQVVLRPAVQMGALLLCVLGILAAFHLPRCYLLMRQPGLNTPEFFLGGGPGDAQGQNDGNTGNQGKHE
Put plainly: Luminescence assay. It is filed as cell-based. The settings on record: aequorin assay, 10–40 nM BCECF.

As for “2′,7′-bis-(2-carboxyethyl)-5-(and-6)-carboxyfluorescein [BCECF]”, the nonspecific signals entry is on record as “did not produce nonspecific signals”.
